{
  "source": "patent US9770423B2",
  "about": "“Modulation sAPP, sAAPα and BDNF levels in individuals diagnosed with FXS and ASD” (Indiana University Research and Technology Corp., priority 2012, dated 2017)",
  "key": {"[1]": {"assay": "safety measures and adverse effects in the FXS open-label trial", "type": "in vivo, human", "from_the_text": "Safety assessment and monitoring began at screen when all subjects underwent a medical history, physical examination, and full psychiatric interview. A physical examination was also completed at end point. Vital signs, including height and weight, were obtained at each study visit. At screen, genetic testing for FXS was obtained if record of molecular testing utilizing Southern Blot and PCR was not available. At screen, week 6, and endpoint, laboratory tests of blood and urine, including CBC with differential and platelets, electrolyte panel, liver associated enzymes, lipid panel, and urine pregnancy test (in females) were obtained. An electrocardiogram was also obtained at screen and endpoint.\nThe pilot study ran for 10 weeks. Safety lab screens were carried out at weeks 6 and 10. Physiologic parameters measured during the safety screens were as follows: vital signs, LFTs, electrolyte panels, CBC with diff/plts, lipid panel, glucose, urinalysis and ECG.\nIn-person clinical visits were scheduled for every two weeks. Telephonic evaluations were carried out at weeks 1, 3, and 5. Each subject was evaluated for side effects at every interaction with the practitioner."}, "[2]": {"system": "adult males with FXS", "conditions": "of 3 adult males with FXS, cited from earlier work"}, "[3]": {"system": "sAPP", "assay": "plasma sAPP total by ELISA pre- and post-acamprosate", "type": "in vivo, human", "conditions": "individual patients 1-6, titled as diagnosed with FXS; after treatment"}, "[4]": {"assay": "safety and adverse effects in the 12-week trial in youth with autistic disorder", "type": "in vivo, human", "conditions": "nine youth with autistic disorder receiving acamprosate", "procedure": "A 12-week single-blind, placebo-controlled trial of the effect of acamprosate in the treatment of 12 youths with autistic disorder aged 5 to 17 years was carried out. In order to pilot test use of acamprosate in youth with autism targeting core social impairment, was conducted. All subjects and their family members were blinded to treatment status. All subjects participated in a 2 week placebo-lead-in phase prior to 10 weeks of treatment with acamprosate. For this project, enteric coated commercially available 333 mg acamprosate pills were over-encapsulated and identical matching placebo manufactured for the project. Placebo-responders, defined by a Clinical Global Impressions Improvement scale (CGI-I) score of 1 “very much improved” or 2 “much improved” (ratings anchored to core social deficits) at week 2 were asked to exit the study. During active treatment with acamprosate, dosing was increased in 333 mg increments per week over the first six weeks of active treatment to a maximum dose of 1,332 mg/day (weight<5 60 kg) or 1,998 mg/day (weight>60 kg). During the final four weeks of active drug treatment, subjects were maintained on a stable highest tolerated (optimal) dose. The primary outcome measure was the clinician-rated CGI-I anchored to symptoms of social impairment. […]"}, "[5]": {"conditions": "caregiver reported, 12 youth with FXS"}},
  "note": "Values joined by “and” are separate entries in the source; they are usually repeats but may differ in a detail not shown here. Equal values may be shown once. “Also recorded” adds a separate entry of the source.",
  "data": [
    {"compound": "CC(=O)NCCCS(=O)(=O)O.[Ca]", "note": "[acamprosate, Calcium Acetylhomotaurine]", "values": [
      {"measurement": "Increased body rocking, mild (number of patients)", "setting": "[1]; 12 youth with FXS", "value": 1},
      {"measurement": "ECG including QTc interval", "setting": "[1]; FXS trial", "value": "no change in the QTc interval"},
      {"measurement": "laboratory measures: lipids, electrolytes, liver function tests, blood counts", "setting": "[1]; FXS trial", "value": "no clinically significant or mean changes"},
      {"measurement": "weight, pulse, or blood pressure", "setting": "[1]; FXS trial", "value": "No clinically significant changes"},
      {"measurement": "overall tolerability", "setting": "[1]; FXS trial, 12 subjects", "value": "well tolerated overall, with no severe or serious adverse effects"},
      {"measurement": "Constipation, mild (n subjects)", "setting": "[1]; [5]", "value": 1},
      {"measurement": "Diarrhea, mild (n subjects)", "setting": "[1]; [5]", "value": 1},
      {"measurement": "Increased Anxiety, mild (n subjects)", "setting": "[1]; [5]", "value": 1},
      {"measurement": "Increased Repetitive Behavior, mild (n subjects)", "setting": "[1]; [5]", "value": 2},
      {"measurement": "Insomnia, mild (n subjects)", "setting": "[1]; [5]", "value": 1},
      {"measurement": "Irritability, mild (n subjects)", "setting": "[1]; [5]", "value": 4},
      {"measurement": "Nightmares, mild (n subjects)", "setting": "[1]; [5]", "value": 1},
      {"measurement": "Rhinitis, mild (n subjects)", "setting": "[1]; [5]", "value": 1},
      {"measurement": "Urinary Urgency, mild (n subjects)", "setting": "[1]; [5]", "value": 1},
      {"measurement": "subjects who experienced a mild adverse event", "setting": "[1]; nine of 12 subjects, FXS trial", "value": 75, "unit": "%"},
      {"measurement": "subjects with non-treatment limiting gastrointestinal distress (emesis and/or nausea)", "setting": "[2]", "value": "Two subjects"},
      {"measurement": "subjects with significant positive clinical response as measured by the CGI-I", "setting": "[2]; mean dose 1,221 mg/day, mean duration 21.3 weeks", "value": 3},
      {"measurement": "sAPP (total)-CP, Week 12", "setting": "[3]", "value": "5.561 ng/mL and 25.16 ng/mL and 12.84 ng/mL and 8.077 ng/mL and 56.8 ng/mL and 7.547 ng/mL"},
      {"measurement": "overall tolerability", "setting": "[4]", "value": "well tolerated with no adverse effects leading to drug discontinuation or laboratory/vital sign abnormalities noted; also recorded: well tolerated with no adverse effects leading to drug discontinuation and no vital sign or safety laboratory changes noted"}
    ]}
  ]
}
